Data on 16 compounds can be found in patent publication US9163021B2, “Pyrrolo[3,2-c]pyridine tropomyosin-related kinase inhibitors” (Pfizer Limited, priority 2012, dated 2015).

TRKA, sequence (P04629 441-796): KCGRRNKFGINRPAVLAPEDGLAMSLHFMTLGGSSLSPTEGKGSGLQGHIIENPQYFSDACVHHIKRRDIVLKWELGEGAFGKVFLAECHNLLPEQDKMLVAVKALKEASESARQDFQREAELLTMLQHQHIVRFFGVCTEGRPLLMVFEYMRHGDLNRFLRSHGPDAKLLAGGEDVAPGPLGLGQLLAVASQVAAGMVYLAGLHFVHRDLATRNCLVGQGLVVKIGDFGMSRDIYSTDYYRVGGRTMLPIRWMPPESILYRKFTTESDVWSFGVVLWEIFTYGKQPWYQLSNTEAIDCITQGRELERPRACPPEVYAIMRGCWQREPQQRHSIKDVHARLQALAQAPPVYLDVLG

This assay addresses TRKA (Homo sapiens (Human), UniProt P04629). Put plainly: Isolated TRK enzyme assay (HTRF KinEASE-TK), PV3144 TrkA enzyme assay. It counts as biochemical. Particulars: arithmetic mean where more than one reading. An outline of the steps:
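His-tagged TrkA cytoplasmic domain preactivated with ATP 20 min, then with compound 20 min at room temperature before 1 µM final biotin-TK substrate; HTRF 665/620 nm read.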
On the technique in general: In TR-FRET formats the signal depends on donor and acceptor labels being close together.
Regarding `O=C(Cc1nc(C2CC2)oc1C1CC1)Nc1cc(C(=O)c2cn(C3COC3)c3ccncc23)ccn1` [Example 202, 2-(2,5-dicyclopropyl-1,3-oxazol-4-yl)-N-(4-{[1-(oxetan-3-yl)-1H-pyrrolo[3,2-c]pyridin-3-yl]carbonyl}pyridin-2-yl)acetamide], half-maximal inhibition (IC50) was put at 0.437 µM. Consider `O=C(Cc1ccc(F)cc1)Nc1cc(C(=O)c2cn(C3COC3)c3ccncc23)ccn1` [Example 204, 2-(4-fluorophenyl)-N-(4-{[1-(oxetan-3-yl)-1H-pyrrolo[3,2-c]pyridin-3-yl]carbonyl}pyridin-2-yl)acetamide], for which the half-inhibitory concentration (IC50) is 0.227 µM.

Consider `O=C(Nc1cc(C(=O)c2cn(C3COC3)c3ccncc23)ccn1)c1cccc(OC(F)(F)F)c1` [Example 205, N-(4-{[1-(oxetan-3-yl)-1H-pyrrolo[3,2-c]pyridin-3-yl]carbonyl}pyridin-2-yl)-3-(trifluoromethoxy)benzamide], for which the IC50 came out at 0.033 µM. The result for `N#Cc1ccc(CC(=O)Nc2cc(C(=O)c3cn(C4COC4)c4ccncc34)ccn2)cc1C(F)(F)F` [Example 221, 2-[4-cyano-3-(trifluoromethyl)phenyl]-N-(4-{[1-(oxetan-3-yl)-1H-pyrrolo[3,2-c]pyridin-3-yl]carbonyl}pyridin-2-yl)acetamide] reads 0.138 µM; that for `CC(CO)n1cc(C(=O)c2cc(NC(=O)Cc3ccc(C(F)(F)F)cc3)ccn2)c2cnccc21` (stereo not shown) [Example 230, N-(2-{[1-(1-hydroxypropan-2-yl)-1H-pyrrolo[3,2-c]pyridin-3-yl]carbonyl}pyridin-4-yl)-2-[4-(trifluoromethyl)phenyl]acetamide], 0.0181 µM. `CC(C)(CO)n1cc(C(=O)c2cc(NC(=O)Cc3ccc(C(F)(F)F)cc3)ccn2)c2cnccc21` [Example 231, N-(2-{[1-(1-hydroxy-2-methylpropan-2-yl)-1H-pyrrolo[3,2-c]pyridin-3-yl]carbonyl}pyridin-4-yl)-2-[4-(trifluoromethyl)phenyl]acetamide] yielded an IC50 of 0.0128 µM. With `CC(C)(CO)n1cc(C(=O)c2cc(NC(=O)Cc3cccc(C(F)(F)F)c3)ccn2)c2cnccc21` [Example 232, N-(2-{[1-(1-hydroxy-2-methylpropan-2-yl)-1H-pyrrolo[3,2-c]pyridin-3-yl]carbonyl}pyridin-4-yl)-2-[3-(trifluoromethyl)phenyl]acetamide], the IC50 was found to be 0.0113 µM. Compound `CC(C)n1cc(C(=O)c2ccnc(NC(=O)Cc3ccc(C#N)c(C(F)(F)F)c3)c2)c2cnccc21` [Example 233, 2-[4-cyano-3-(trifluoromethyl)phenyl]-N-(4-{[1-(propan-2-yl)-1H-pyrrolo[3,2-c]pyridin-3-yl]carbonyl}pyridin-2-yl)acetamide] registered an IC50 of 0.0244 µM. For `CC(C)(CO)n1cc(C(=O)c2cc(NC(=O)Cn3ccc(C4CC4)n3)ccn2)c2cnccc21` [Example 234, 2-(3-cyclopropyl-1H-pyrazol-1-yl)-N-(2-{[1-(1-hydroxy-2-methylpropan-2-yl)-1H-pyrrolo[3,2-c]pyridin-3-yl]carbonyl}pyridin-4-yl)acetamide], it took 0.0165 µM to reach half-maximal inhibition (IC50). `CC(C)(CO)n1cc(C(=O)c2cncc(NC(=O)Cc3cccc(C(F)(F)F)c3)c2)c2cnccc21` [Example 235, N-(5-{[1-(1-hydroxy-2-methylpropan-2-yl)-1H-pyrrolo[3,2-c]pyridin-3-yl]carbonyl}pyridin-3-yl)-2-[3-(trifluoromethyl)phenyl]acetamide]: the midpoint of inhibition, the IC50, lay at 0.00287 µM.

Consider `CC(C)(CO)n1cc(C(=O)c2cncc(NC(=O)Cn3ccc(C(F)(F)F)n3)c2)c2cnccc21` [Example 236, N-(5-{[1-(1-hydroxy-2-methylpropan-2-yl)-1H-pyrrolo[3,2-c]pyridin-3-yl]carbonyl}pyridin-3-yl)-2-[3-(trifluoromethyl)-1H-pyrazol-1-yl]acetamide], for which the IC50 is 0.0431 µM.

`CC(C)(CO)n1cc(C(=O)c2cncc(NC(=O)Cn3cc(C4CC4)nn3)c2)c2cncc(F)c21` [Example 240, 2-(4-cyclopropyl-1H-1,2,3-triazol-1-yl)-N-(5-{[7-fluoro-1-(1-hydroxy-2-methylpropan-2-yl)-1H-pyrrolo[3,2-c]pyridin-3-yl]carbonyl}pyridin-3-yl)acetamide] had an IC50 of 0.024 µM.

“N-(2-{[1-(1-hydroxypropan-2-yl)-1H-pyrrolo[3,2-c]pyridin-3-yl]carbonyl}pyridin-4-yl)-2-[4-(trifluoromethyl)phenyl]acetamide [Example 84]” gave an IC50 of 0.141 µM. On to “N-(4-{[1-(propan-2-yl)-1H-pyrrolo[3,2-c]pyridin-3-yl]carbonyl}pyridin-2-yl)-2-[4-(trifluoromethoxy)phenyl]acetamide [Example 168]”, for which the IC50 is 0.0147 µM. Compound “N-(5-{[7-fluoro-1-(1-hydroxypropan-2-yl)-1H-pyrrolo[3,2-c]pyridin-3-yl]carbonyl}pyridin-3-yl)-2-[4-(trifluoromethyl)-1H-1,2,3-triazol-1-yl]acetamide [Example 214]” registered an IC50 of 0.0931 µM. As to “N-(5-{[7-fluoro-1-(1-hydroxypropan-2-yl)-1H-pyrrolo[3,2-c]pyridin-3-yl]carbonyl}pyridin-3-yl)-2-[4-(trifluoromethyl)phenyl]acetamide [Example 209]”, half-maximal inhibition (IC50) required 0.264 µM.

In general, IC50 refers to the midpoint of a concentration-inhibition curve. A high value points to weaker potency.
